The source of these data is US20250177364A1, “COMBINATION THERAPIES FOR BREAST CANCER” (Genentech, Inc., priority 2022, published 2025).

Where only a bound is given, the exact number is not on record here.

One data set relates to HCC1419 cells. As to the kind of experiment: Anti-proliferative activity, growth-rate (GR) inhibition method, CyQUANT. Type of data set: cell-based. The conditions noted are these: 6 days after drug treatment, control GR=1, giredestrant 0.3 μM, trastuzumab and pertuzumab 30 μg/ml each. As to the method:
(§1) FIG. 3 depicts in vitro anti-proliferative activity of ER inhibition by giredestrant, and/or HER2 inhibition by the combination of trastuzumab and pertuzumab, assessed using the growth rate (GR) method in Example 1. Growth rate (GR) under control conditions is set to 1; lower growth rates equate to a greater anti-proliferative effect. Individual points reflect GR values at 0.3 μM giredestrant, and at […] trastuzumab and pertuzumab. Materials and Methods: ER+/HER2+ cell lines UACC-812, HCC1419 and ZR-75-30 cells were plated in 50 μL culture media in 384-well plates. Cells were incubated in humidified incubator overnight (37 degree, 5% CO2). Test materials were dispensed into 384-well plate on day 1; giredestrant was evaluated as a 9-point dose response (3-fold dose dilutions from a maximum concentration of 300 nM), and traztuzumab and pertuzumab were evaluated as a fixed dose at 30 μg/ml each. Fluorescence-based cell proliferation (CyQUANT®; ThermoFisher Scientific, Cat #C7026) readings were taken at day 1 to establish a baseline, and at 6 days following drug treatment. Analysis of the drug response was performed using the growth-rate (GR) inhibition method to avoid biases between slow and fast-growing lines (Hafner et al., Nat Methods 2016 June; 13 (6): 521-7)).

Another data set deals with UACC-812 cells. The description is as above. Type of data set: cell-based. Conditions: 6 days after drug treatment, control GR=1, giredestrant 0.3 μM, trastuzumab and pertuzumab 30 μg/ml each. As to the method: as §1
The subject of a further data set is ZR-75-30 cells. Described as above. The data set is classed as cell-based. The conditions noted are these: 6 days after drug treatment, control GR=1, giredestrant 0.3 μM, trastuzumab and pertuzumab 30 μg/ml each. As to the method: FIG. 3 depicts in vitro anti-proliferative activity of ER inhibition by giredestrant, and/or HER2 inhibition by the combination of trastuzumab and pertuzumab, assessed using the growth rate (GR) method in Example 1. Growth rate (GR) under control conditions is set to 1; lower growth rates equate to a greater anti-proliferative effect. Individual points reflect GR values at 0.3 μM giredestrant, and at […] trastuzumab and pertuzumab.
Materials and Methods: ER+/HER2+ cell lines UACC-812, HCC1419 and ZR-75-30 cells were plated in 50 μL culture media in 384-well plates. Cells were incubated in humidified incubator overnight (37 degree, 5% CO2). Test materials were dispensed into 384-well plate on day 1; giredestrant was evaluated as a 9-point dose response (3-fold dose dilutions from a maximum concentration of 300 nM), and traztuzumab and pertuzumab were evaluated as a fixed dose at 30 μg/ml each. Fluorescence-based cell proliferation (CyQUANT®; ThermoFisher Scientific, Cat #C7026) readings were taken at day 1 to establish a baseline, and at 6 days following drug treatment. Analysis of the drug response was performed using the growth-rate (GR) inhibition method to avoid biases between slow and fast-growing lines (Hafner et al., Nat Methods 2016 June; 13 (6): 521-7)). […]

Data set [1] concerns ER (ligand-binding domain of wild-type and mutant ER). The conditions noted are these: cited from earlier work.
Data set [2] has as its system ER-positive BC cell lines. Conditions: multiple ER-positive BC cell lines, including cells with ER mutations; cited from earlier work.
The subject of data set [3] is ER-positive, HER2-negative ABC. The conditions noted are these: 30 mg daily; previously treated patients; cited from earlier work.
The subject of data set [4] is ER-positive, HER2-negative EBC. The conditions noted are these: neoadjuvant; cited from earlier work.

With `C[C@@H]1Cc2c([nH]c3ccccc23)[C@@H](c2c(F)cc(NC3CN(CCCF)C3)cc2F)N1CC(F)(F)CO` [giredestrant, 3-((1R,3R)-1-(2,6-difluoro-4-((1-(3-fluoropropyl)azetidin-3-yl)amino)phenyl)-3-methyl-1,3,4,9-tetrahydro-2H-pyrido[3,4-b]indol-2-yl)-2,2-difluoropropan-1-ol], the “Growth rate (GR) value” was less than 0.5 with HCC1419 cells, less than 0.5 in the data set with UACC-812 cells and more than 0.75 with ZR-75-30 cells. Further, the “Potency compared to fulvestrant, tamoxifen and other oral SERDs” value in data set [1] (Liang et al.) is listed as “higher potency”. Also, the “Potency of competitive binding to the ER” value in data set [1] (competes with estrogens) is “low nanomolar potency”. The Inhibition of proliferation result in data set [2] is “potently inhibits”. For the same molecule, the Clinical activity entry in data set [3] is “promising signs of clinical activity”. For the same molecule, in data set [3], the Safety entry is “safe”. Also, the “Ki67 suppression and complete cell cycle arrest versus anastrozole” value in data set [4] is listed as “superior to anastrozole”.
